These results are taken from publication PMC3661498 (Ophthalmology and Eye Diseases, 2010).

Each structure is given as a SMILES string. Where two headings read alike, the source gives them in different places.

Series [1] has as its system HSV-1. Briefly: In vitro antiviral testing, CPE inhibition, HSV-1. The format is cell-based. The note with it: Human alphaherpesvirus 1, read-out: EC50 HSV-1 CPE inhibition.
Series [2] relates to HSV-2. Briefly: In vitro antiviral testing, CPE inhibition, HSV-2. The format is cell-based. The conditions noted are these: Human alphaherpesvirus 2, read-out: EC50 HSV-2 CPE inhibition.
Series [3] can be described thus: Transport of drug/prodrugs across freshly excised rabbit cornea. The format is in vitro ADME. The note with it: New Zealand albino, rabbit, pH 7.4.
The test system of series [4] is HSV-1. The conditions noted are these: read-out: EC50 HSV-1; cited from earlier work.
The subject of series [5] is [^3H] alanine uptake by rPCEC. Put plainly: Uptake of [3H] alanine by rPCEC in presence of prodrugs, kinetics and affinity. The format is cell-based, rabbit.
In series [6] the test system is [^3H] arginine uptake by rPCEC. Put plainly: Uptake of [3H] arginine by rPCEC in presence of prodrugs. The format is cell-based, rabbit. The note with it: 5 mM test substance.
Series [7] deals with [^3H] phenylalanine uptake by rPCEC. Put plainly: Uptake of [3H] phenylalanine by rPCEC in presence of prodrugs. In kind it is cell-based, rabbit. The conditions noted are these: 5 mM test substance.
For series [8], the system named is isolated rabbit cornea. Put plainly: Transport of drug/prodrugs across freshly excised rabbit cornea. The conditions noted are these: in presence of 5 mM glutamic acid. In kind it is in vitro ADME.

For `Nc1nc2c(ncn2COCCO)c(=O)[nH]1` [ACV, acyclovir], the values for the EC50 in series [1] and in series [2] were 7.1 µM and 6.6 µM, respectively. In addition, in series [3], the Papp at 3 h, 1 mM amounted to 2.33 ± 0.73 ×10⁻⁶ cm/s.

Consider `CC(C)[C@H](N)C(=O)OCCOCn1cnc2c(=O)[nH]c(N)nc21` [VACV, valacyclovir], for which the EC50 in series [4] is 9.1 µM.

Take `C[C@H](N)C(=O)O` [alanine, L-alanine]: the “Effect on [^3H] alanine uptake (in words)” value in series [5] (5 mM test substance) is “significantly inhibited”. Moreover, the “Vmax of alanine uptake” value in series [5] (no inhibitor, listed as [^3H] alanine) is recorded as 0.84 μmoles·min^−1·mg protein^−1. The Km in series [5] (read-out: Km of alanine uptake, no inhibitor) turned out to be 710 µM.

Regarding `N=C(N)NCCC[C@H](N)C(=O)O` [arginine, L-arginine], the “Effect on [^3H] arginine uptake (in words)” value in series [6] is on record as “significantly inhibited”.

Turning to `N[C@@H](Cc1ccccc1)C(=O)O` [phenylalanine], in series [7], the “Effect on [^3H] phenylalanine uptake (in words)” value was “significantly inhibited”.

Turning to `O=C(O)CCC(=O)O` [succinate], the “Effect on transcorneal flux (in words)” value in series [8] is “did not cause any significant change”.

The EC50 is the midpoint of the concentration-response curve. What is called Papp is a coefficient for how fast a substance crosses the barrier. As a reminder, the Km is the concentration of substrate that gives half-maximal velocity.
